Source: US8592407B2, “Pyrrolo[2,1-c][1,4] benzodiazepine derivatives with dithiocarbamate side chains and process for the preparation thereof” (Council of Scientific & Industrial Research, priority 2008, dated 2013)

Experiments:
calf thymus DNA (CT-DNA) = assay: Thermal denaturation studies with duplex-form calf thymus DNA; assay type: binding; settings: [PBD]:[DNA] 1:5, CT-DNA 100 μM, ligand 20 μM, pH 7.00; for ΔTm after incubation at 37° C. for 0 h: 0 h at 37° C.; for ΔTm after incubation at 37° C. for 18 h: 18 h at 37° C.
Method: Compounds have been subjected to thermal denaturation studies with duplex-form calf thymus DNA (CT-DNA) using an modification of a reported procedure (Newman, M. S. Carcinog-compr. Surv. 1976, 1, 203; (b) Hecht, S. S.; Loy, M.; Hoffman, Carcinog-compr. Surv. 1976, 1, 325). Working solutions in aqueous buffer (10 mM NaH2PO4/Na2HPO4, 1 mM Na2EDTA, pH 7.00+0.01) containing CT-DNA (100 μm in phosphate) and the PBD (20 μm) have been prepared by addition of concentrated PBD solutions in DMSO to obtain a fixed [PBD]/[DNA] molar ratio of 1:5. The DNA−PBD solutions have been incubated at 37° C. for 0 and 18 h prior to analysis. Samples have been monitored at 260 nm using a Beckman DU-800 spectrophotometer fitted with high performance temperature controller, and heated at 1° C. min^−1
in the 40-110° C. range. DNA helix[…]coil transition temperatures (Tm) have been obtained from the maxima in the d(A260)/dT derivative plots. Drug-induced alterations in DNA melting behavior are given by: ΔTm=Tm(DNA+PBD)−Tm (DNA alone), where the Tm value for the PBD-free CT-DNA is 69.1±0.01.

[1] = system: Non-small-cell-lung panel; assay: NCI screen, panel average; assay type: cell-based, human; settings: for LC50: Homo sapiens, read-out: Log10 LC50 (concentration in mol/L causing 50% lethality) (converted); for Log10 GI50 (concentration in mol/L): Non-small-cell-lung, average of six to eight cell lines
SF-539 = assay: NCI in vitro cytotoxicity (SRB); assay type: cell-based; settings: Homo sapiens; CNS SF-539; 48 h exposure
[2] = system: sixty human tumour cell lines; settings: mean over human tumour cell lines
Method: For each compound, dose response curves for each cell line were measured at a minimum of five concentrations at 10 fold dilutions. A protocol of 48 h continuous drug exposure was used and a sulforhodamine B (SRB) protein assay was used to estimate cell viability or growth. The concentration causing 50% cell growth inhibition (G150), total cell growth inhibition (TGI 0% growth) and 50% cell death (LC50, −50% growth) compared with the control was calculated.

SK-OV-3 = assay: NCI in vitro cytotoxicity (SRB); assay type: cell-based; settings: Homo sapiens; Ovarian SK-OV-3; 48 h exposure
BT-549 = assay: NCI in vitro cytotoxicity (SRB); assay type: cell-based; settings: Homo sapiens; Breast BT-549; 48 h exposure
Renal panel = assay: NCI screen, panel average; assay type: cell-based, human; settings: for LC50 (concentration causing 50% lethality): Homo sapiens, read-out: Log10 LC50 (concentration in mol/L causing 50% lethality) (converted); for Log10 GI50 (concentration in mol/L): Renal, average of six to eight cell lines
Melanoma panel = assay: NCI screen, panel average; assay type: cell-based, human; settings: for LC50: Homo sapiens, read-out: Log10 LC50 (concentration in mol/L causing 50% lethality) (converted); for Log10 GI50 (concentration in mol/L): Melanoma, average of six to eight cell lines
MOLT-4 = assay: NCI in vitro cytotoxicity (SRB); assay type: cell-based; settings: Homo sapiens
HCT-116 = assay: NCI in vitro cytotoxicity (SRB); assay type: cell-based; settings: Homo sapiens
HCT-15 = assay: NCI in vitro cytotoxicity (SRB); assay type: cell-based; settings: Homo sapiens; Colon HCT-15; 48 h exposure
TK-10 = assay: NCI in vitro cytotoxicity (SRB); assay type: cell-based; settings: Homo sapiens; Renal TK-10; 48 h exposure
NCI-H23 = assay: NCI in vitro cytotoxicity (SRB); assay type: cell-based; settings: Homo sapiens; Non-smallcell lung NCI-H23; 48 h exposure
UACC-257 = assay: NCI in vitro cytotoxicity (SRB); assay type: cell-based; settings: Homo sapiens; Melanoma UACC-257; 48 h exposure
DU-145 = assay: NCI in vitro cytotoxicity (SRB); assay type: cell-based; settings: Homo sapiens
K-562 = assay: NCI in vitro cytotoxicity (SRB); assay type: cell-based; settings: Homo sapiens, K562; Leukemia K-562; 48 h exposure
KM12 = assay: NCI in vitro cytotoxicity (SRB); assay type: cell-based; settings: Homo sapiens; Colon KM12; 48 h exposure
U251 = assay: NCI in vitro cytotoxicity (SRB); assay type: cell-based; settings: Homo sapiens, U-251; CNS U251; 48 h exposure
LOX IMVI = assay: NCI in vitro cytotoxicity (SRB); assay type: cell-based; settings: Homo sapiens
OVCAR-5 = assay: NCI in vitro cytotoxicity (SRB); assay type: cell-based; settings: Homo sapiens; Ovarian OVCAR-5; 48 h exposure
Ovarian panel = assay: NCI screen, panel average; assay type: cell-based, human; settings: for LC50 (50% lethal concentration): Homo sapiens, read-out: Log10 LC50 (concentration in mol/L causing 50% lethality) (converted); for Log10 GI50 (concentration in mol/L): Ovarian, average of six to eight cell lines
A498 = assay: NCI in vitro cytotoxicity (SRB); assay type: cell-based; settings: Homo sapiens; Renal A498; 48 h exposure
NCI-H460 = assay: NCI in vitro cytotoxicity (SRB); assay type: cell-based; settings: Homo sapiens; Non-smallcell lung NCI-H460; 48 h exposure
A549/ATCC = assay: NCI in vitro cytotoxicity (SRB); assay type: cell-based; settings: Homo sapiens; Non-smallcell lung A549/ATCC; 48 h exposure
CNS panel = assay: NCI screen, panel average; assay type: cell-based, human; settings: for Log10 GI50 (concentration in mol/L): CNS, average of six to eight cell lines; for LC50: Homo sapiens, read-out: Log10 LC50 (concentration in mol/L causing 50% lethality) (converted)
MDA-MB-468 = assay: NCI in vitro cytotoxicity (SRB); assay type: cell-based; settings: Homo sapiens
MDA-MB-435 = assay: NCI in vitro cytotoxicity (SRB); assay type: cell-based; settings: Homo sapiens; Breast MDA-MB-435; 48 h exposure
NCI-H226 = assay: NCI in vitro cytotoxicity (SRB); assay type: cell-based; settings: Homo sapiens; Non-smallcell lung NCI-H226; 48 h exposure
SW-620 = assay: NCI in vitro cytotoxicity (SRB); assay type: cell-based; settings: Homo sapiens
CAKI-1 = assay: NCI in vitro cytotoxicity (SRB); assay type: cell-based; settings: Homo sapiens; Renal CAKI-1; 48 h exposure
HS 578T = assay: NCI in vitro cytotoxicity (SRB); assay type: cell-based; settings: Homo sapiens; Breast HS 578T; 48 h exposure
[3] = Melanoma LOX IMVI, 48 h exposure
[4] = Breast MDA-MB-468, 48 h exposure

SMILES: COc1cc2c(cc1OCCCCN1CCN(C(=S)SCCC(C#N)(c3ccccc3)c3ccccc3)CC1)N=C[C@@H]1CCCN1C2=O [Compound 12c, 3-cyano-3,3-diphenylpropyl 4-(4-[(11aS)-7-(methyloxy)-5-oxo-2,3,5,11a-tetrahydro-1H-benzo[e]pyrrolo[1,2-a][1,4]diazepin-8-yl]oxybutyl)hexahydro-1-pyrazinecarbodithioate]
- ΔTm after incubation at 37° C. for 0 h (calf thymus DNA (CT-DNA)): 2.0 °C
- ΔTm after incubation at 37° C. for 18 h (calf thymus DNA (CT-DNA)): 2.1 °C
- LC50 [1]: 38900 nM
- Log10 GI50 (concentration in mol/L) [1]: −5.97 mol/L
- GI50 (SF-539): 1690 nM
- Log10GI50 mean graph midpoint (MG_MID) [2]: −5.98
- Log10LC50 mean graph midpoint (MG_MID) [2]: −4.48
- Log10TGI mean graph midpoint (MG_MID) [2]: −5.28
- GI50 (SK-OV-3): 2960 nM
- GI50 (BT-549): 1420 nM
- LC50 (concentration causing 50% lethality) (Renal panel): 15100 nM
- Log10 GI50 (concentration in mol/L) (Renal panel): −6.05 mol/L
- LC50 (Melanoma panel): 7410 nM
- Log10 GI50 (concentration in mol/L) (Melanoma panel): −5.90 mol/L
- GI50 (MOLT-4; Leukemia MOLT-4, 48 h exposure): 350 nM
- GI50 (HCT-116; Colon HCT-116, 48 h exposure): 540 nM
- GI50 (HCT-15): 1410 nM
- GI50 (TK-10): 1260 nM
- GI50 (NCI-H23): 1680 nM
- GI50 (UACC-257): 1970 nM
- GI50 (DU-145; Prostate DU-145, 48 h exposure): 1470 nM
- GI50 (K-562): 3290 nM
- GI50 (KM12): 1390 nM
- GI50 (U251): 1110 nM
- GI50 (LOX IMVI; [3]): 690 nM
- GI50 (OVCAR-5): 2470 nM
- LC50 (50% lethal concentration) (Ovarian panel): 55000 nM
- Log10 GI50 (concentration in mol/L) (Ovarian panel): −5.82 mol/L
- GI50 (A498): 1190 nM
- GI50 (NCI-H460): 1250 nM
- GI50 (A549/ATCC): 1610 nM
- Log10 GI50 (concentration in mol/L) (CNS panel): −5.84 mol/L
- LC50 (CNS panel): 7590 nM
- GI50 (MDA-MB-468; [4]): 490 nM
- GI50 (MDA-MB-435): 1040 nM
- GI50 (NCI-H226): 1260 nM
- GI50 (SW-620; Colon SW-620, 48 h exposure): 1120 nM
- GI50 (CAKI-1): 590 nM
- GI50 (HS 578T): 720 nM

SMILES: COc1cc2c(cc1OCCCN1CCN(C(=S)SCCC(C#N)(c3ccccc3)c3ccccc3)CC1)N=C[C@@H]1CCCN1C2=O [Compound 12b, 3-cyano-3,3-diphenylpropyl 4-(3-[(11aS)-7-(methyloxy)-5-oxo-2,3,5,11a-tetrahydro-1H-benzo[e]pyrrolo[1,2-a][1,4]diazepin-8-yl]oxypropyl)hexahydro-1-pyrazinecarbodithioate]
- ΔTm after incubation at 37° C. for 0 h (calf thymus DNA (CT-DNA)): 2.0 °C
- ΔTm after incubation at 37° C. for 18 h (calf thymus DNA (CT-DNA)): 4.0 °C
- LC50 [1]: 11000 nM
- Log10 GI50 (concentration in mol/L) [1]: −6.07 mol/L
- GI50 (SF-539): 1440 nM
- Log10GI50 mean graph midpoint (MG_MID) [2]: −6.15
- Log10LC50 mean graph midpoint (MG_MID) [2]: −4.96
- Log10TGI mean graph midpoint (MG_MID) [2]: −5.67
- GI50 (SK-OV-3): 2690 nM
- GI50 (BT-549): 920 nM
- LC50 (concentration causing 50% lethality) (Renal panel): 4070 nM
- Log10 GI50 (concentration in mol/L) (Renal panel): −6.20 mol/L
- LC50 (Melanoma panel): 5500 nM
- Log10 GI50 (concentration in mol/L) (Melanoma panel): −5.94 mol/L
- GI50 (MOLT-4; Leukemia MOLT-4, 48 h exposure): 220 nM
- GI50 (MOLT-4; leukemia MOLT-4): 220 nM
- GI50 (HCT-116; Colon HCT-116, 48 h exposure): 380 nM
- GI50 (HCT-116; colon cancer HCT-116): 380 nM
- GI50 (HCT-15): 1810 nM
- GI50 (TK-10): 650 nM
- GI50 (NCI-H23): 1400 nM
- GI50 (UACC-257): 2000 nM
- GI50 (DU-145; Prostate DU-145, 48 h exposure): 260 nM
- GI50 (DU-145; prostate DU-145): 260 nM
- GI50 (K-562): 260 nM
- GI50 (KM12): 1070 nM
- GI50 (U251): 390 nM
- GI50 (LOX IMVI; [3]): 600 nM
- GI50 (LOX IMVI; melanoma LOX IMVI): 600 nM
- GI50 (OVCAR-5): 1350 nM
- LC50 (50% lethal concentration) (Ovarian panel): 18600 nM
- Log10 GI50 (concentration in mol/L) (Ovarian panel): −6.03 mol/L
- GI50 (A498): 910 nM
- GI50 (NCI-H460): 770 nM
- GI50 (A549/ATCC): 1220 nM
- Log10 GI50 (concentration in mol/L) (CNS panel): −6.12 mol/L
- LC50 (CNS panel): 4470 nM
- GI50 (MDA-MB-468; MDA-MB-468, breast MDA-MEI-468): 280 nM
- GI50 (MDA-MB-468; [4]): 280 nM
- GI50 (MDA-MB-435): 550 nM
- GI50 (NCI-H226): 1510 nM
- GI50 (SW-620; Colon SW-620, 48 h exposure): 510 nM
- GI50 (SW-620; colon cancer SW-620): 510 nM
- GI50 (CAKI-1): 300 nM
- GI50 (HS 578T): 560 nM
